Experimental data: patent US4250170A, “Antibacterial agents Bu-2349A and B and method of using same” (Bristol-Myers Company, priority 1979, dated 1981)
In brackets after ≈: the same amount, converted by molar mass.

Assays:
[1] = test system: Bacillus subtilis PCI 219 (Bs-1); assay: MIC, two-fold agar dilution; format: cell-based; settings: 18 h, Table 3, Mueller-Hinton agar, 10^-4 dilution
Procedure: (§1) The minimum inhibitory concentrations (MIC) of Bu-2349A and B were determined against a wide variety of bacteria by the two-fold agar dilution method. Mueller-Hinton agar medium was generally used for the determination of bacterial MIC except for species of Streptococcus, Neisseria and Hemophilus for which Gonococcus agar medium (GC agar, Nissui Co., Tokyo) was used. Gifu anaerobe agar medium (GAM agar, Eiken Co., Tokyo) was used for anaerobic bacteria. The MIC's were determined after overnight incubation at 37° C. with an initial inoculum equivalent to a 10^-4 dilution of an 18-hour culture for the aerobic and anaerobic bacteria, except for Streptococcus, Neisseria and Hemophilus for which a 10^-2 dilution was used.
(§2) The influence of inoculum size on MIC was tested on Mueller-Hinton agar using an inoculum of […], 10^-2 or 10^-4 dilution of the overnight culture of test organisms.
(§3) The effect of media pH on the MIC's of Bu-2349A was determined at three pH levels (6, 7 and 8) using Mueller-Hinton agar.
(§4) The media effect on the MIC's of Bu-2349A was tested using four kinds of assay media: Mueller-Hinton agar (MHA), nutrient agar (NA), heart infusion agar (HIA) and brain heart infusion agar (BHIA). The pH was adjusted at 7 and a 10^-4 dilution of overnight culture was used for the inoculum.

[2] = test system: Escherichia coli Juhl (Ec-3); assay: MIC, two-fold agar dilution; format: cell-based; settings: 18 h, Table 3, Mueller-Hinton agar, 10^-4 dilution
Procedure: as §1, §2, §3, §4

[3] = test system: Escherichia coli ML-1630 (Ec-5), APH(3')-1; assay: MIC, two-fold agar dilution; format: cell-based; settings: 18 h, Table 3, Mueller-Hinton agar, 10^-4 dilution, enzyme APH(3')-1
Procedure: as §1, §2, §3, §4

[4] = test system: Klebsiella pneumoniae (Kp-2); assay: MIC, two-fold agar dilution; format: cell-based; settings: 18 h, Table 3, Mueller-Hinton agar, 10^-4 dilution, read-out: MIC
Procedure: as §1, §2, §3, §4

Proteus mirabilis (Pm-1) = assay: MIC, two-fold agar dilution; format: cell-based; settings: Proteus mirabilis, 18 h, Table 3; Mueller-Hinton agar, 10^-4 dilution; read-out: MIC
Procedure: as §1, §2, §3, §4

Proteus morganii (Pg-1) = assay: MIC, two-fold agar dilution; format: cell-based; settings: Morganella morganii, 18 h, Table 3; Mueller-Hinton agar, 10^-4 dilution
Procedure: as §1, §2, §3, §4

[5] = test system: Pseudomonas aeruginosa (Pa-3); assay: MIC, two-fold agar dilution; format: cell-based; settings: 18 h, Table 3, Mueller-Hinton agar, 10^-4 dilution
Procedure: as §1, §2, §3, §4

[6] = test system: Staphylococcus aureus 209P (Sa-1); assay: MIC, two-fold agar dilution; format: cell-based; settings: 18 h, Table 3, Mueller-Hinton agar, 10^-4 dilution
Procedure: as §1, §2, §3, §4

[7] = test system: Staphylococcus aureus Smith (Sa-2); assay: MIC, two-fold agar dilution; format: cell-based; settings: 18 h, Table 3, Mueller-Hinton agar, 10^-4 dilution
[8] = test system: Staphylococcus aureus Terajima (Sa-33); assay: MIC, two-fold agar dilution; format: cell-based; settings: 18 h, Table 3, Mueller-Hinton agar, 10^-4 dilution
[9] = test system: Staphylococcus aureus (Sa-77), ANT(4'); assay: MIC, two-fold agar dilution; format: cell-based; settings: 18 h
[10] = test system: Staphylococcus epidermidis (Si-2), ANT (4'); assay: MIC, two-fold agar dilution; format: cell-based; settings: 18 h, Table 3, Mueller-Hinton agar, 10^-4 dilution, enzyme ANT (4')
[11] = test system: Streptococcus pyogenes (Sp-3); assay: MIC, two-fold agar dilution; format: cell-based; settings: 18 h, Table 3, GC agar, 10^-2 dilution
[12] = test system: Streptococcus viridans (Sv-1); assay: MIC, two-fold agar dilution; format: cell-based; settings: 18 h, Table 3, GC agar, 10^-2 dilution
[13] = test system: Streptococcus pneumoniae (Dp-4); assay: MIC, two-fold agar dilution; format: cell-based; settings: 18 h, Table 3, GC agar, 10^-2 dilution
Mycobacterium 607 (M6-1) = assay: MIC, two-fold agar dilution; format: cell-based; settings: 18 h, Table 3, Mueller-Hinton agar, 10^-4 dilution
[14] = test system: Mycobacterium phlei D88 (Mp-1); assay: MIC, two-fold agar dilution; format: cell-based; settings: Mycolicibacterium phlei, 18 h; Table 3; Mueller-Hinton agar, 10^-4 dilution
[15] = test system: Mycobacterium ranae ATCC 110 (Mr-1); assay: MIC, two-fold agar dilution; format: cell-based; settings: ATCC110, 18 h, Table 3, Mueller-Hinton agar, 10^-4 dilution
[16] = test system: Escherichia coli NIHJ (Ec-1); assay: MIC, two-fold agar dilution; format: cell-based; settings: 18 h, Table 3, Mueller-Hinton agar, 10^-4 dilution
[17] = test system: Escherichia coli (Ec-9), AAC(6')-1; assay: MIC, two-fold agar dilution; format: cell-based; settings: 18 h, Table 3, Mueller-Hinton agar, 10^-4 dilution, enzyme AAC(6')-1
[18] = test system: Escherichia coli (Ec-49), APH(3')-2; assay: MIC, two-fold agar dilution; format: cell-based; settings: 18 h, Table 3, Mueller-Hinton agar, 10^-4 dilution, enzyme APH(3')-2
[19] = test system: Escherichia coli (Ec-62), AAC(3)- 1; assay: MIC, two-fold agar dilution; format: cell-based; settings: 18 h, Table 3, Mueller-Hinton agar, 10^-4 dilution, enzyme AAC(3)- 1
[20] = test system: Escherichia coli (Ec-72), ANT(2"); assay: MIC, two-fold agar dilution; format: cell-based; settings: 18 h, Table 3, Mueller-Hinton agar, 10^-4 dilution, enzyme ANT(2")
[21] = test system: Enterobacter cloacae (El-35), AAC(3)-3; assay: MIC, two-fold agar dilution; format: cell-based; settings: 18 h, Table 3, Mueller-Hinton agar, 10^-4 dilution, enzyme AAC(3)-3
[22] = test system: Klebsiella pneumoniae (Kp-33), AAC(3)-3; assay: MIC, two-fold agar dilution; format: cell-based; settings: 18 h, Table 3, Mueller-Hinton agar, 10^-4 dilution, enzyme AAC(3)-3
Proteus vulgaris (Pv-1) = assay: MIC, two-fold agar dilution; format: cell-based; settings: 18 h, Table 3, Mueller-Hinton agar, 10^-4 dilution
Proteus rettgeri (Pr-2) = assay: MIC, two-fold agar dilution; format: cell-based; settings: Providencia rettgeri, 18 h; Table 3; Mueller-Hinton agar, 10^-4 dilution
[23] = test system: Proteus stuartii (Ps-2), AAC(2'); assay: MIC, two-fold agar dilution; format: cell-based; settings: 18 h; Table 3; Mueller-Hinton agar, 10^-4 dilution; enzyme AAC(2')
[24] = test system: Serratia marcescens (Sm-2); assay: MIC, two-fold agar dilution; format: cell-based; settings: 18 h, Table 3, Mueller-Hinton agar, 10^-4 dilution
[25] = test system: Neisseria meningitidis (Nm-1); assay: MIC, two-fold agar dilution; format: cell-based; settings: 18 h, Table 3, GC agar, 10^-2 dilution
[26] = test system: Neisseria gonorrhoeae (Ng-1); assay: MIC, two-fold agar dilution; format: cell-based; settings: 18 h, Table 3, GC agar, 10^-2 dilution
[27] = test system: Hemophylus influenzae (He-2); assay: MIC, two-fold agar dilution; format: cell-based; settings: 18 h; Table 3; GC agar, 10^-2 dilution
solubility = format: physicochemical; settings: hydrochloride salt
[28] = test system: gram-positive and gram-negative bacteria; assay: in vitro antibacterial activity, overall statements; format: cell-based
Procedure: as §1, §2, §3, §4

`C=C1OC(OC2C(CO)OC(Oc3ccc(C(=O)NCCCNCCCCN)cc3)C2O)C(O)C(OC2OC(CO)C(OC3OC(C)C(N)C(O)C3NC(=O)C(C)N)C(O)C2O)C1O` (stereo not shown) [Bu-2349B] gave an MIC [1] of 25 µg/mL (≈ 27.2 µM), an MIC [2] of 6.3 µg/mL (≈ 6.86 µM) and an MIC [3] of 6.3 µg/mL (≈ 6.86 µM). The MIC [4] was 12.5 µg/mL (≈ 13.6 µM), the MIC (Proteus mirabilis (Pm-1)) was 25 µg/mL (≈ 27.2 µM) and the MIC (Proteus morganii (Pg-1)) was 100 µg/mL (≈ 109 µM). For the same compound, the MIC [5] was 100 µg/mL (≈ 109 µM), the MIC [6] was 12.5 µg/mL (≈ 13.6 µM) and the MIC [7] was 12.5 µg/mL (≈ 13.6 µM). It also gave an MIC [8] of 6.3 µg/mL (≈ 6.86 µM), an MIC [9] of 50 µg/mL (≈ 54.4 µM) and an MIC [10] of 25 µg/mL (≈ 27.2 µM). For the same compound, the MIC [11] was over 100 µg/mL, the MIC [12] was over 100 µg/mL and the MIC [13] was over 100 µg/mL. It also gave an MIC (Mycobacterium 607 (M6-1)) of 12.5 µg/mL (≈ 13.6 µM), an MIC [14] of 25 µg/mL (≈ 27.2 µM) and an MIC [15] of 25 µg/mL (≈ 27.2 µM). It also gave an MIC [16] of 3.1 µg/mL (≈ 3.37 µM), an MIC [17] of 0.8 µg/mL (≈ 0.871 µM) and an MIC [18] of 3.1 µg/mL (≈ 3.37 µM). It also gave an MIC [19] of 12.5 µg/mL (≈ 13.6 µM), an MIC [20] of 6.3 µg/mL (≈ 6.86 µM) and an MIC [21] of 12.5 µg/mL (≈ 13.6 µM). For the same compound, the MIC [22] was 12.5 µg/mL (≈ 13.6 µM), the MIC (Proteus vulgaris (Pv-1)) was 6.3 µg/mL (≈ 6.86 µM) and the MIC (Proteus rettgeri (Pr-2)) was 3.1 µg/mL (≈ 3.37 µM). It also gave an MIC [23] of 1.6 µg/mL (≈ 1.74 µM), an MIC [24] of 50 µg/mL (≈ 54.4 µM) and an MIC [25] of over 100 µg/mL. For the same compound, the MIC [26] was over 100 µg/mL, the MIC [27] was over 100 µg/mL and the “solubility in methanol, ethanol, dimethylsulfoxide and dimethylformamide” value (solubility; methanol, ethanol, dimethylsulfoxide and dimethylformamide) was “slightly soluble”. The “solubility in other common organic solvents” value (solubility; other common organic solvents) was “practically insoluble”, the solubility in water (solubility; water) was “soluble” and the “inhibitory activity both in vitro and in vivo” value ([28]; gram-positive and gram-negative bacteria, including aminoglycoside-resistant bacteria, summary statement) was “marked inhibitory activity”. The antibacterial activity ([28]; including bacteria which produce aminoglycoside-modifying enzymes) was “active”.
